From US20230331685A1, “HERBICIDAL COMPOUNDS AND METHODS OF USE THEREOF” (AG Plenus Ltd, priority 2020, published 2023) come the findings set out here.

Holding throughout (type): in vivo
The test system of one test is Phalaris minor. Nature of the test: LTP post-emergence greenhouse test. As to conditions: Dosage 2000 g/ha.
The test system of a further test is Lolium multiflorum. The experiment in a line: LTP post-emergence greenhouse test. As to conditions: Dosage 2000 g/ha.
The next test deals with Echinochloa crus-galli. Nature of the test: LTP post-emergence greenhouse test. The following applies: Dosage 2000 g/ha.
For the next test, the system named is Digitaria sanguinalis. Nature of the test: LTP post-emergence greenhouse test. The following applies: Dosage 2000 g/ha.
A further test concerns Setaria viridis. The experiment in a line: LTP post-emergence greenhouse test. As to conditions: Dosage 2000 g/ha.
The test system of the next test is Alopecurus myosuroides. The experiment in a line: LTP post-emergence greenhouse test. As to conditions: Dosage 2000 g/ha.
Another test concerns Lolium perenne. The experiment in a line: LTP post-emergence greenhouse test. The following applies: Dosage 2000 g/ha.
The test system of another test is Poa annua. Nature of the test: LTP post-emergence greenhouse test. The following applies: Dosage 2000 g/ha.
A further test relates to Echinochloa colon. Nature of the test: LTP post-emergence greenhouse test. As to conditions: Dosage 2000 g/ha.
The subject of the next test is Amaranthus tuberculatus. The experiment in a line: LTP post-emergence greenhouse test. As to conditions: Dosage 2000 g/ha. The method, then: A basic panel of eight weed species (Table 3) sowed in 4×4×7 cm plastic pots containing a garden mix (klasmann). Each specie was sowed in a separate pot. In each pot, 10-15 seeds were sowed according to the specie viability. Timing of application determined at a 1-2 true leaf stage. The plants grew for 30 days in a controlled greenhouse (26±2° C. day, 20±2° C. night). Hood irrigation (tap water+Shefer 5:3:8 8 mM) was given at a 50% water content by weight. Two days before application, the tested plants thinned down to three plants per pot. Compounds were soluble in water (DDW), and commercial herbicide control was soluble in formulation B (Table 4). Before application, 1% (v/v) crop oil and 0.02% (v/v) surfactant (Tergitol™ 15-S-7) were added to the solution. […] Plants were evaluated at 3 time points (4, 8, 12 days after application (DAA)). At each time point, visual phenotyping was recorded using a scale of 0-6 (0: no visible effect, 6: maximum effect). […]
Post-emergence advanced wide panel experiment included 24 weed species (Table 5). […] Visual phenotyping was recorded at 4, 11, 17 and 20 DAA using a scale of 0-6 (0: no visible effect, 6: maximum effect). […] Statistical analysis for visual phenotyping determined by a median value of ≥3.5 and Fisher test (pval≤0.05). Statistical analysis for dry weight determined by % inhibition ≥50 and T test (pval≤0.05), as well as Wilcox test (pval≤0.05).

The subject of a further test is Chenopodium album. Nature of the test: LTP post-emergence greenhouse test. The following applies: Dosage 2000 g/ha.
Another test deals with Conyza canadensis. The experiment in a line: LTP post-emergence greenhouse test. The following applies: Dosage 2000 g/ha.
For a further test, the system named is Galium aparine. Nature of the test: LTP post-emergence greenhouse test. As to conditions: Dosage 2000 g/ha.
A further test has as its system Stellaria media. Nature of the test: LTP post-emergence greenhouse test. As to conditions: Dosage 2000 g/ha.
The next test deals with Solanum nigrum. Nature of the test: LTP post-emergence greenhouse test. As to conditions: Dosage 2000 g/ha.
The test system of a further test is Amaranthus palmeri. The experiment in a line: LTP post-emergence greenhouse test. As to conditions: Dosage 2000 g/ha.
In a further test the test system is Matricaria chamomilla. Nature of the test: LTP post-emergence greenhouse test. As to conditions: Dosage 2000 g/ha.
The test system of another test is Abutilon theophrasti. Nature of the test: LTP post-emergence greenhouse test. As to conditions: Dosage 2000 g/ha.
In the next test the test system is Ambrosia artemisiifolia. The experiment in a line: LTP post-emergence greenhouse test. The following applies: Dosage 2000 g/ha.
The test system of another test is Eragrostis teff. Nature of the test: HTPS pre-emergence application on monocot model plant. The method, then: The plates were placed in a controlled greenhouse in a random order inside a bath which allows flooding irrigation with tap water supplemented with a fertilizer. Applied compounds were dissolved into a final solution of 50% acetone, 49.9% DDW, 0.1% tween-20. A 96 well plate was used as a stock plate for preparing application solutions for 8 repeats. Each row contained different concentrations per chemical. Maximal concentration for application was 1.5 Kg/Ha and dilution factor is 2.5. Chemical application was performed one day after thinning out in a chemical hood. […] applied on first two true leaves in each well using 12 channel pipettes. Data collection: RGB (red, green, blue) data for green area per well was documented using camera. Data is collected at a few time points during the experiment: one day after thinning and before chemical application, two-, six- or nine-days post application. During the last two documentations, visual phenotyping was performed. Data analysis: Given RGB results and visual phenotype scores, a student t-test conducted to compare between treatment and control performance for continuous data (RGB) and Fisher exact test to analyze the non-continuous data (phenotypic scores). Dose-Response curves are generated for each treatment to infer ED50 and max. inhibition parameters, using treatment's log concentration range as the […] and normalized green area. […] Plate imaging performed at 11 and 18 DAA. RGB data for green area per well was documented and used to extract % inhibition. Dose-Response curves were built for each treatment to infer EC50, EC75 and EC90 parameters, using treatment's log concentration range as the independent variable and normalized green area as the dependent variable. Treatments were compared to controls performance given RGB results and using student's t-test (p-val≤0.05). Compounds 104-154 were applied in either or both pre- and post-emergence mode to either or both monocot and dicot model plants, following the methods described above. The compounds were applied as a gradient of concentrations as listed above, from which the ED50 was calculated.

A further test relates to Arabidopsis thaliana. Nature of the test: HTPS post-emergence application on miniature dicot model plant. The following applies: Arabidopsis thaliana, post-emergence, green area (RGB), read-out: Max Inhibition (%). How it is done: The plates were placed in a controlled greenhouse in a random order inside a bath which allows flooding irrigation with tap water supplemented with a fertilizer. Applied compounds were dissolved into a final solution of 50% acetone, 49.9% DDW, 0.1% tween-20. A 96 well plate was used as a stock plate for preparing application solutions for 8 repeats. Each row contained different concentrations per chemical. Maximal concentration for application was 1.5 Kg/Ha and dilution factor is 2.5. Chemical application was performed one day after thinning out in a chemical hood. […] applied on first two true leaves in each well using 12 channel pipettes. Data collection: RGB (red, green, blue) data for green area per well was documented using camera. Data is collected at a few time points during the experiment: one day after thinning and before chemical application, two-, six- or nine-days post application. During the last two documentations, visual phenotyping was performed. Data analysis: Given RGB results and visual phenotype scores, a student t-test conducted to compare between treatment and control performance for continuous data (RGB) and Fisher exact test to analyze the non-continuous data (phenotypic scores). Dose-Response curves are generated for each treatment to infer ED50 and max. inhibition parameters, using treatment's log concentration range as the […] variable and normalized green area. Plate imaging performed at 11 and 18 DAA. RGB data for green area per well was documented and used to extract % inhibition. Dose-Response curves were built for each treatment to infer EC50, EC75 and EC90 parameters, using treatment's log concentration range as the independent variable and normalized green area as the dependent variable. Treatments were compared to controls performance given RGB results and using student's t-test (p-val≤0.05). Compounds 104-154 were applied in either or both pre- and post-emergence mode to either or both monocot and dicot model plants, following the methods described above. The compounds were applied as a gradient of concentrations as listed above, from which the ED50 was calculated.

The test system of test [1] is monocot and eudicot weeds species. The experiment in a line: In-planta LTP weed panel, overall assessment. As to conditions: applied post-emergence; both monocot and dicot species.

On to `NC1CCCC(CCCC(=O)O)C1` (centres unmarked) [Compound 145], for which the “Herbicidal activity (In-planta), LTP-Post emergence, Phalaris minor” value in the test with Phalaris minor is given as 0. In addition, the “Herbicidal activity (In-planta), LTP-Post emergence, Lolium multiflorum” value in the test on Lolium multiflorum is 20-40. Also, in the test on Echinochloa crus-galli, the “Herbicidal activity (In-planta), LTP-Post emergence, Echinochloa crus-galli” value is recorded as 60-80. Further, in the test on Digitaria sanguinalis, the “Herbicidal activity (In-planta), LTP-Post emergence, Digitaria sanguinalis” value was 60-80. In addition, the “Herbicidal activity (In-planta), LTP-Post emergence, Setaria viridis” value in the test with Setaria viridis came to 60. The “Herbicidal activity (In-planta), LTP-Post emergence, Alopecurus myosuroides” value in the test on Alopecurus myosuroides is given as 60-80. Also, the “Herbicidal activity (In-planta), LTP-Post emergence, Lolium perenne” value in the test with Lolium perenne is on record as 40-60. Besides, the “Herbicidal activity (In-planta), LTP-Post emergence, Poa annua” value in the test on Poa annua is given as 20-40. Besides, the “Herbicidal activity (In-planta), LTP-Post emergence, Echinochloa colon” value in the test with Echinochloa colon is listed as 20-40. The “Herbicidal activity (In-planta), LTP-Post emergence, Amaranthus tuberculatus” value in the test on Amaranthus tuberculatus was 40-60. The “Herbicidal activity (In-planta), LTP-Post emergence, Chenopodium album” value in the test on Chenopodium album was 40-60. Further, the “Herbicidal activity (In-planta), LTP-Post emergence, Conyza canadensis” value in the test on Conyza canadensis is given as 40-60. Moreover, in the test with Galium aparine, the “Herbicidal activity (In-planta), LTP-Post emergence, Galium aparine” value is recorded as 40-60. For the same molecule, the “Herbicidal activity (In-planta), LTP-Post emergence, Stellaria media” value in the test with Stellaria media is given as 20-40. Besides, the “Herbicidal activity (In-planta), LTP-Post emergence, Solanum nigrum” value in the test with Solanum nigrum was 40-60. In addition, the “Herbicidal activity (In-planta), LTP-Post emergence, Amaranthus palmeri” value in the test with Amaranthus palmeri is given as 20-40. The “Herbicidal activity (In-planta), LTP-Post emergence, Matricaria chamomilla” value with Matricaria chamomilla is listed as 0. In the test with Abutilon theophrasti, the “Herbicidal activity (In-planta), LTP-Post emergence, Abutilon theophrasti” value is 20-40. Further, the “Herbicidal activity (In-planta), LTP-Post emergence, Ambrosia artemisiifolia” value in the test on Ambrosia artemisiifolia was 20-40. The “ED50 (g/ha)” value with Eragrostis teff (dose-response of normalized green area) was 16.8 g/ha. The “Max Inhibition (%)” value with Eragrostis teff (green area (RGB)) is recorded as 100%. Besides, in the test with Arabidopsis thaliana, the Emax came out at 100%. For the same molecule, the “activity (in words)” value in [1] was “good to moderate activity”.
